Here are results for four molecules from US5795561A, “Radioiodinated phospholipid ether analogues” (The Board of Regents of the University of Michigan, priority 1994, dated 1998).

Read-outs that look alike come from different tables or passages of the source.

The test system of data set [1] is Walker 256 sarcoma. Particulars: rat, in vivo.
Description: (§2) Both types of lesions were located in the thigh of the rat. Tumor bearing lesions were produced by implantation of Walker 256 sarcoma cells and inflammatory granuloma lesions were developed using carrageenan irritation in accordance with the method described by Atkinson, et al., Agents and Actions, Vol. 8, pages 263-267, 1978.
The nature of data set [2]: Tissue distribution of radioactivity after IV administration in rats bearing Walker 256 sarcoma (Tables 1-4). Particulars: rat, 125I-labelled; for tissue uptake at 6 h: 6 hours after IV; for tissue uptake at 24 h: 24 hours after IV. The format is in vivo, female Sprague Dawley rats. Here is the method:
(§1) Radiolabelled compounds 1-[12-(m-iodophenyl)-dodecyl]-2-methyl-rac-glycero-3-phosphocholine (ET-12IP-OMe; Example 2, compound 18) and 1-[12-(m-iodophenyl)-dodecyl]-propanediol-3-phosphocholine (ET-12IP-OH; Example 3, compound 24) were prepared and administered to two sets of female Sprague Dawley rats: normal rats (control) and rats bearing tumors resulting from Walker 256 sarcoma cells which had been implanted into the thigh. The labelled compounds (5-35 μCi ^125 I) were administered intravenously in a 2% Tween 20-saline vehicle. At various times following administration the animals were sacrificed, and selected tissue samples were removed. The tissue samples were weighed and placed in cellulose acetate capsules. The radioactivity was then counted (85% efficiency) using a well scintillation counter (Searle 1185).

The subject of data set [3] is Walker 256 sarcoma. Described as above. The format is in vivo, female Sprague Dawley rats. The procedure: as §1
Data set [4] can be described thus: Tissue distribution 24 hours after I.V. administration to rats bearing the Walker-256 carcinosarcoma (Tables 5 and 6). The format is in vivo, Sprague-Dawley rats. Particulars: rat, iv, tumor-bearing rats. Here is the method:
Tissue distribution studies were conducted with the alkyl lysophospholipid analogues of general Formula II.

Data set [5] can be described thus: Tissue distribution of radioactivity after IV administration in normal (control) rats (Tables 1-4). The format is in vivo, female Sprague Dawley rats. Particulars: rat, 125I-labelled; for tissue uptake at 6 h: 6 hours after IV, N = 3, mean ± standard error; for tissue uptake at 24 h: 24 hours after IV. The procedure: as §1
Data set [6] deals with inflammatory granuloma lesions. The settings on record: rat, in vivo.
Description: as §2
Data set [7] deals with human HTB 77 ovarian adenocarcinoma, NCI 69 human small cell carcinoma, and human HTB 63 melanoma. The experiment in a line: In vivo tumor localization and scintigraphy in athymic nude mice with subcutaneous human tumors (Example 8). The settings on record: similar studies to those with compound 50 (rat and athymic mouse models).
Data set [8] concerns inflammatory granuloma lesions. The experiment in a line: Gamma-camera scintigraphy in rats bearing inflammatory lesions (granuloma).
Description: as §2
For another data set, the system named is tumor. The settings on record: background; cited from earlier work.
The test system of data set [9] is Walker 256 sarcoma. As to the kind of experiment: Gamma-camera scintigraphy in tumor-bearing rats.
Description: as §2
Setting [10] is: blood, tumor-bearing rats, N = 3, mean ± standard error, read-out: Radioactivity in blood.
Where [11] appears, read: kidney, tumor-bearing rats, N = 3, mean ± standard error, read-out: Radioactivity in kidney.
The mark [12] stands for this setting: liver, tumor-bearing rats, N = 3, mean ± standard error, read-out: Radioactivity in liver.
The mark [13] stands for this setting: lung, tumor-bearing rats, N = 3, mean ± standard error, read-out: Radioactivity in lung.
Where [14] appears, read: muscle, tumor-bearing rats, N = 3, mean ± standard error, read-out: Radioactivity in muscle.
[15] abbreviates: walker 256 tumor, Walker 256 sarcoma implanted in thigh, N = 3, mean ± standard error, read-out: Radioactivity in tumor.
Setting [16] is: adrenal, read-out: Distribution of radioactivity: adrenal.
Setting [17] is: blood, read-out: Distribution of radioactivity: blood.
Setting [18] is: read-out: Distribution of radioactivity: tumor.
Setting [19] is: kidney, read-out: Distribution of radioactivity: kidney.
[20] abbreviates: liver, read-out: Distribution of radioactivity: liver.
[21] abbreviates: lung, read-out: Distribution of radioactivity: lung.
The mark [22] stands for this setting: muscle, read-out: Distribution of radioactivity: muscle.
The mark [23] stands for this setting: thyroid, read-out: Distribution of radioactivity: thyroid.
Setting [24] is: blood, read-out: Radioactivity in blood.
Where [25] appears, read: kidney, read-out: Radioactivity in kidney.
The mark [26] stands for this setting: liver, read-out: Radioactivity in liver.
[27] abbreviates: lung, read-out: Radioactivity in lung.
The mark [28] stands for this setting: muscle, read-out: Radioactivity in muscle.
The mark [29] stands for this setting: whole body scans 24 hours after administration.

As for `COC(COCCCCCCCCCCCCc1cccc([125I])c1)COP(=O)([O-])OCC[N+](C)(C)C` (racemic) [ET-12IP-OMe, 1-[12-(m-iodophenyl)-dodecyl]-2-methyl-rac-glycero-3-phosphocholine], the localization in tumor result in the data set on Walker 256 sarcoma [1] is given as “capable of localizing in the tumor”. Also, the tissue uptake at 6 h is 0.231 ± 0.008 %ID/g in data set [2] (setting [10]); 1.31 ± 0.091 %ID/g in data set [2] (setting [11]); 3.59 ± 0.189 %ID/g in data set [2] (setting [12]); 0.873 ± 0.081 %ID/g in data set [2] (setting [13]); 0.046 ± 0.001 %ID/g in data set [2] (setting [14]); 1.12 ± 0.024 %ID/g in [2] (setting [15]). The tissue uptake at 6 h in [5] (setting [24]) was 0.105 ± 0.009 %ID/g; in data set [5] (setting [25]) it was 0.65 ± 0.114 %ID/g; in data set [5] (setting [26]), 1.74 ± 0.125 %ID/g; in data set [5] (setting [27]), 0.356 ± 0.012 %ID/g; in [5] (setting [28]), 0.023 %ID/g. For the same molecule, the tissue uptake at 24 h in data set [2] (setting [10]) came to 0.096 ± 0.023 %ID/g; in data set [2] (setting [11]), 0.463 ± 0.111 %ID/g; in [2] (setting [12]), 0.743 ± 0.105 %ID/g; in data set [2] (setting [13]), 0.299 ± 0.017 %ID/g; in data set [2] (setting [14]) it was 0.027 ± 0.006 %ID/g; in [2] (setting [15]) it was 1.11 ± 0.016 %ID/g. In addition, the tissue uptake at 24 h in data set [4] (setting [16]) is 0.436 %ID/g; in data set [4] (setting [17]), 0.096 %ID/g; in [4] (setting [18]), 1.11 %ID/g; in [4] (setting [19]), 0.463 %ID/g; in [4] (setting [20]) it was 0.743 %ID/g; in data set [4] (setting [21]), 0.299 %ID/g. Also, the tissue uptake at 24 h in data set [4] (setting [22]) worked out at 0.027 %ID/g; in [4] (setting [23]) it was 7.34 %ID/g; in [5] (blood, N = 4, mean ± standard error, read-out: Radioactivity in blood), 0.085 ± 0.001 %ID/g; in data set [5] (kidney, N = 4, mean ± standard error, read-out: Radioactivity in kidney) it was 0.426 ± 0.03 %ID/g; in [5] (liver, N = 4, mean ± standard error, read-out: Radioactivity in liver) it was 0.675 ± 0.02 %ID/g; in [5] (lung, N = 4, mean ± standard error, read-out: Radioactivity in lung) it was 0.218 ± 0.01 %ID/g. Also, in data set [5] (muscle, N = 4, mean ± standard error, read-out: Radioactivity in muscle), the tissue uptake at 24 h was determined as 0.034 ± 0.004 %ID/g. For the same molecule, in the data set with Walker 256 sarcoma [3] (by 24 hours), the “clearance of radioactivity from tissues” value is “radioactivity had cleared significantly from all of the tissues except for tumor tissue”. The “tissues with the highest concentrations of radioactivity” value in the data set on Walker 256 sarcoma [3] (six hours following administration) was “liver, kidney, and tumor tissues exhibiting the highest concentrations”. In data set [6], the “localization in the inflammatory lesion” value was “little activity was associated with this area”.
For the molecule `CCCCCCCCCCCCCCCCOP(=O)([O-])OCC[N+](C)(C)Cc1cccc(I)c1` [Compound 60, hexadecyl-2-[N,N-dimethyl-N-(m-iodobenzyl)-ammonium] ethylphosphate], in data set [7], the “localization in tumor tissues” value is recorded as “exhibited localization in tumor tissues”.
Turning to `C[N+](C)(C)CCOP(=O)([O-])OCCCOCCCCCCCCCCCCc1cccc([125I])c1` [ET-12IP-H, 1-[12-(m-iodophenyl)-dodecyl]-propanediol-3-phosphocholine], the tissue uptake at 6 h in data set [2] (setting [10]) is 0.239 ± 0.024 %ID/g; in data set [2] (setting [11]), 1.77 ± 0.108 %ID/g; in data set [2] (setting [12]), 0.892 ± 0.083 %ID/g; in data set [2] (setting [13]), 0.525 %ID/g; in data set [2] (setting [14]) it was 0.05 ± 0.009 %ID/g; in [2] (setting [15]) it was 1.03 ± 0.158 %ID/g. For the same molecule, the tissue uptake at 6 h was determined as 0.475 ± 0.078 %ID/g in [5] (setting [24]); 2.6 ± 0.107 %ID/g in data set [5] (setting [25]); 1.35 ± 0.047 %ID/g in data set [5] (setting [26]); 0.816 ± 0.031 %ID/g in data set [5] (setting [27]); 0.083 ± 0.009 %ID/g in data set [5] (setting [28]). Also, the tissue uptake at 24 h in data set [2] (blood, tumor-bearing rats, N = 3, mean ± standard error (Table 4), read-out: Radioactivity in blood) came to 0.036 ± 0.004 %ID/g; in data set [2] (kidney, tumor-bearing rats, N = 3, mean ± standard error (Table 4), read-out: Radioactivity in kidney), 0.235 ± 0.018 %ID/g; in data set [2] (liver, tumor-bearing rats, N = 3, mean ± standard error (Table 4), read-out: Radioactivity in liver), 0.139 ± 0.01 %ID/g; in data set [2] (lung, tumor-bearing rats, N = 3, mean ± standard error (Table 4), read-out: Radioactivity in lung), 0.105 %ID/g; in data set [2] (muscle, tumor-bearing rats, N = 3, mean ± standard error (Table 4), read-out: Radioactivity in muscle) it was 0.014 ± 0.001 %ID/g; in data set [2] (walker 256 tumor, Walker 256 sarcoma implanted in thigh, N = 3, mean ± standard error (Table 4), read-out: Radioactivity in tumor), 0.463 ± 0.063 %ID/g. For the same molecule, the tissue uptake at 24 h is 0.274 %ID/g in data set [4] (setting [16]); 0.036 %ID/g in [4] (setting [17]); 0.463 %ID/g in data set [4] (setting [18]); 0.235 %ID/g in data set [4] (setting [19]); 0.139 %ID/g in data set [4] (setting [20]); 0.105 %ID/g in [4] (setting [21]). Further, the tissue uptake at 24 h was found to be 0.014 %ID/g in data set [4] (setting [22]); 8.45 %ID/g in data set [4] (setting [23]); 0.047 ± 0.035 %ID/g in [5] (blood, N = 3, mean ± standard error (Table 4), read-out: Radioactivity in blood); 0.257 ± 0.01 %ID/g in data set [5] (kidney, N = 3, mean ± standard error (Table 4), read-out: Radioactivity in kidney); 0.142 ± 0.033 %ID/g in data set [5] (liver, N = 3, mean ± standard error (Table 4), read-out: Radioactivity in liver); 0.129 ± 0.013 %ID/g in [5] (lung, N = 3, mean ± standard error (Table 4), read-out: Radioactivity in lung). Moreover, in data set [5] (muscle, N = 3, mean ± standard error (Table 4), read-out: Radioactivity in muscle), the tissue uptake at 24 h came out at 0.025 ± 0.001 %ID/g.
`O=C([O-])CC(O)(CC(=O)[O-])C(=O)[O-].[67Ga+3]` [gallium-67 citrate]: the “accumulation in granuloma (inflammatory lesion), scintigraphic scan” value in [8] (24 hours after administration, for ET-12IP-OMe in relation to liver) is on record as “high accumulation”. Besides, the “accumulation in liver (scintigraphic scan)” value is “high accumulation” in data set [8] (granuloma-bearing rat, 24 hours after administration) and “low accumulation” in the data set with Walker 256 sarcoma [9] (tumor-bearing rat, 24 hours after administration). Besides, the “localization in the inflammatory lesion” value in [8] (setting [29]) is listed as “found to localize in the inflammatory lesion”. For the same molecule, in the data set with tumor, the “accumulation in inflammatory lesions” value is “also accumulates in a variety of other inflammatory lesions”. In the data set on tumor, the “alteration of distribution by steroidal and antineoplastic drugs” value was “can be altered by a variety of steroidal and antineoplastic drugs”. The localization in tumor result in the data set with tumor is on record as “will localize, or accumulate, in a tumor”; in the data set with Walker 256 sarcoma [9] (setting [29]), “capable of localizing in the tumor”. Besides, the “accumulation in tumor (scintigraphic scan)” value with Walker 256 sarcoma [9] (24 hours after administration) was “high accumulation”.
